In patent US20230321063A1, “COMPOSITIONS AND METHODS TO REDUCE NEUROINFLAMMATION” (Seattle Children's Hospital d/b/a Seattle Children's …, priority 2020, published 2023):

Key:
[1] = test system: Ndufs4(KO) mouse model of LS; assay: Survival studies and overall disease course in Ndufs4(KO) mice; type: in vivo
Method: Ndufs4(+/−) mice were bred to produce Ndufs4(KO) (Ndufs4(−/−)) offspring. Mice were weaned at 20-21 days of age. Ndufs4(KO) animals were housed with a minimum of one control littermate for warmth and stimulation. Mice were weighed, and health assessed, a minimum of 3 times per week, every other day (daily for IP injected mice, see herein). Where longitudinal blood point-of-care data was collected, this was performed during these health checks. Wetted chow in a dish on the bottom of each cage, and in-cage water bottles, were provided to all cages housing Ndufs4(KO) mice following the onset of disease so that the ability to find or reach food or water was not a limiting factor for survival.
Doses of each drug was based on published data for use in animals. […] Blood and tissue concentrations reached biologically relevant levels for each of the tested inhibitors.
Pharmacologic interventions and chow formulation. Standard mouse chow was ground to a power and mixed with drugs at the doses desired (see FIGS. 4A-4L). 300 mL of 1% agar melted in sterile water was added per kilogram of powdered chow and the mixture was pelleted and baked at 37° C. for 3-5 hours to dry. Pellets were then stored at 4° C. for short term (up to 90 days) or −20° C. for long-term (up to 6 months) storage. It was previously shown that this processing had no impact on animal health or survival (Johnson et al. Front Genet. 2015; 6:247). […]
To determine whether the benefits of mTOR inhibition in Ndufs4(KO) model result from disruption of PI3K mediated signaling, animals were treated from weaning (post-natal day 21, P21) with potent, orally available, isoform specific inhibitors of the catalytic subunits of PI3K: BYL719, GSK2636771, CAL-101, and IPI-549, inhibitors of p110α, p110β, p110δ, and p110γ, respectively.

Ndufs4(KO) mice [2] = assay: Point-of-care blood glucose by age; type: in vivo, mouse
Source text: Point-of-care glucose and lactate testing. Blood glucose and lactate measurements were collected using point-of-care meters (Prodigy Autocode® glucose meter, product #51850-3466188, Prodigy® Diabetes Care, LLC, Charlotte, NC; lactate assay meter, product #40828, Nova Biomedical, Waltham, MA) and the tail-prick method, as previously described (Stokes et al. Elife 2021; 10:e65400).

[3] = test system: non-lesion CNS tissue in Ndufs4(KO) mice; assay: Brain immunological staining: microglia and astrocytes in cortex and brainstem outside of overt lesions; type: in vivo, mouse; settings: 300 mg/kg/day
Method: Brain immunological staining and microscopy. Brains were fixed for 48 hours in 10% formalin at 4° C. Following fixation, brains were moved to a cryoprotectant solution (30% sucrose, 1% DMSO, 100 μM glycine, 1×PBS, 0.45 μm filtered, pH 7.5), and stored for over 48 hours, until the fixed tissues sank to the bottom. Tissues were then placed in OCT media (Tissue-Tek OCT compound, Sakura 0004348-01), frozen in cryoblock holders on dry ice, and stored at −80° C. until sectioned for staining. Cryoblocks were cut at 50 μm thickness using a Leica CM30505 cryostat set at −40° C. Slices were moved to 1×PBS and stored at 4° C. until used for staining. Prior to staining, slices were mounted on slides and briefly dried to adhere.
Antibody staining was performed as follows: slides were first incubated in an antigen retrieval and permeabilization buffer (0.05% Triton X-100, 50 μM digitonin, 10 mM Tris-HCl, 1 mM EDTA, pH 9.0) at 60° C. overnight in a white-light LED illuminated box (to promote photobleaching of tissue autofluorescence). To reduce formaldehyde induced background fluorescence, slides were treated with sodium borohydride in ice cold PBS, added at 1 mg/mL immediately before incubation, on ice for 30 min, then moved to 10 mM glycine 1×PBS, pH 7.4, for 5 min at room temperature. Lipid background fluorescence was then blocked by incubating slides in 0.2 μm filtered Sudan Black B solution (5 mg/mL in 70% ethanol) overnight at room temperature. Slides were then rinsed twice, 5 min each, in 1×PBS. Excess fluid was wiped from the slide, and the tissue was circled using Liquid Blocker PAP pen (Fisher Scientific, NC9827128) to hold staining solutions. Slides were blocked for 15 min at room temperature in 1×PBS with 10% rabbit serum (Gibco, 16120-099) then stained overnight at 4° C. in a mixture of rabbit anti-IBA1-fluorochrome 635 conjugated (WAKO 013-26471) at 1:300, mouse anti-GFAP, Alexa555 conjugated (Cell Signaling, 3656S) at 1:300, and DAPI (Sigma, D9542) at 1 μg/mL. […]

Ndufs4(KO) mice [4] = assay: Rotarod induced seizures; type: in vivo, mouse
Method: Rotarod and rotarod seizures. Rotarod assays were performed using a Med Associates Inc. (Fairfax, VT) ENV-571M single lane rotarod with a black mat installed in the floor of the lane to reduce visibility of the bottom. Assays were performed by placing animals onto an already rotating rod and timing latency to fall, with a steady rotation speed set to 6 rpm (controlled by attached laptop and Med Associates software). The maximum time of each trial was 10 min, with the trial ending at that time if mice were still on the rotarod. For each assay, three trials were performed, with a minimum of 5 min between each assay. The best of the three trials was reported for the rotarod data. As detailed in the text and figure legends, rotarod was performed each 10 days of age from P30; mice in a given age group were the reported age +/−1 day.
Mice were monitored throughout each assay for seizure activity, and rotarod performance trials were ended if a seizure was observed. […]

In the case of `FC(F)(F)c1ccc(CNc2ccc(Cc3c[nH]c4ncc(Cl)cc34)cn2)cn1` [pexidartinib, 5-[(5-chloro-1H-pyrrolo[2,3-b]pyridin-3-yl)methyl]-N-[[6-(trifluoromethyl)pyridin-3-yl]methyl]pyridin-2-amine], the “lifespan of treated Ndufs4(KO) animals relative to treated control mice” value ([1]; 300 mg/kg/d, drug toxicity appears to limit lifespan) is reported as “live as long as treated control mice”, the “impact on disease (overall) / disease or survival” value ([1]; Ndufs4(KO) mice) is reported as “dramatically attenuates disease” and the survival ([1]; Ndufs4(KO) mice vs untreated) is reported as “dramatically extended survival”. The “extension of median survival” value ([1]; Ndufs4(KO) mice, 300 mg/kg/day in chow) was 300%, the “cause of death of control animals” value ([1]; control animals on 300 mg/kg/d) was “died of unknown causes with no evident illness” and the “survival compared to untreated Ndufs4(KO) mice” value ([1]; each of 100-300 mg/kg/day, dose-dependent) was “statistically significant increase”. The “overt signs of severe neurologic sequelae prior to death” value ([1]; majority of high dose animals) was “did not show overt signs of severe neurologic sequelae prior to death”, the “hypoglycemia (blood glucose)” value (Ndufs4(KO) mice [2]) was “prevented” and the “astrocyte numbers in non-lesion CNS tissue” value [3] was “rescued to control levels”. For the same molecule, the “microglia numbers in non-lesion CNS tissue” value ([3]; beyond that of untreated control animals) was “near complete depletion of microglia”, the “astrocytosis and microgliosis in non-lesion CNS tissue” value ([3]; cortex and brainstem outside overt lesions) was “prevented both forms of gliosis” and the time-to-seizure (Ndufs4(KO) mice [4]; Ndufs4(KO) mice at P30, rotarod assay) was “markedly reduced”. For the same molecule, the “incidence of rotarod induced seizures” value (Ndufs4(KO) mice [4]; Ndufs4(KO) mice at P30, untreated 30%) was “markedly reduced”.
